Calls of active or inactive are those of the source. The rule behind the calls is not given here.
Columns and labels:
[1] = Toxicity in BALB/c mouse xenografted with human PC-3 cells assessed as kidney pathological change at 20 mg/kg,ip administrated once every 4 days for 24 days by hematoxylin and eosin staining based analysis; type: organism-based; conditions: in vivo, 576 h, time 24 day
[2] = test system: PC-3; test: Antitumor activity against human PC-3 cells xenografted in BALB/c mouse assessed as reduction in number of CD31-positive cells in tumor tissue at ip administrated once every 4 days for 24 days by DAPI staining based immunohistochemical analysis; type: functional, organism-based; conditions: time 24.0 day
[3] = test system: PC-3; test: Antiproliferative activity against human PC-3 cells transfected with SOS1 shRNA assessed as inhibition of cell growth incubated for 72 hrs by MTT assay; type: functional, cell-based; conditions: PC-3, 72 h
[4] = molecular target: T1, Son of sevenless homolog 1 (Homo sapiens) (UniProt Q07889); test: Inhibition of SOS1 in human PC-3 cells assessed as downregulation of RAS-GTP expression at 12.5 uM incubated for 15 mins by Western blotting analysis; type: cell-based
T1 sequence (whole entry): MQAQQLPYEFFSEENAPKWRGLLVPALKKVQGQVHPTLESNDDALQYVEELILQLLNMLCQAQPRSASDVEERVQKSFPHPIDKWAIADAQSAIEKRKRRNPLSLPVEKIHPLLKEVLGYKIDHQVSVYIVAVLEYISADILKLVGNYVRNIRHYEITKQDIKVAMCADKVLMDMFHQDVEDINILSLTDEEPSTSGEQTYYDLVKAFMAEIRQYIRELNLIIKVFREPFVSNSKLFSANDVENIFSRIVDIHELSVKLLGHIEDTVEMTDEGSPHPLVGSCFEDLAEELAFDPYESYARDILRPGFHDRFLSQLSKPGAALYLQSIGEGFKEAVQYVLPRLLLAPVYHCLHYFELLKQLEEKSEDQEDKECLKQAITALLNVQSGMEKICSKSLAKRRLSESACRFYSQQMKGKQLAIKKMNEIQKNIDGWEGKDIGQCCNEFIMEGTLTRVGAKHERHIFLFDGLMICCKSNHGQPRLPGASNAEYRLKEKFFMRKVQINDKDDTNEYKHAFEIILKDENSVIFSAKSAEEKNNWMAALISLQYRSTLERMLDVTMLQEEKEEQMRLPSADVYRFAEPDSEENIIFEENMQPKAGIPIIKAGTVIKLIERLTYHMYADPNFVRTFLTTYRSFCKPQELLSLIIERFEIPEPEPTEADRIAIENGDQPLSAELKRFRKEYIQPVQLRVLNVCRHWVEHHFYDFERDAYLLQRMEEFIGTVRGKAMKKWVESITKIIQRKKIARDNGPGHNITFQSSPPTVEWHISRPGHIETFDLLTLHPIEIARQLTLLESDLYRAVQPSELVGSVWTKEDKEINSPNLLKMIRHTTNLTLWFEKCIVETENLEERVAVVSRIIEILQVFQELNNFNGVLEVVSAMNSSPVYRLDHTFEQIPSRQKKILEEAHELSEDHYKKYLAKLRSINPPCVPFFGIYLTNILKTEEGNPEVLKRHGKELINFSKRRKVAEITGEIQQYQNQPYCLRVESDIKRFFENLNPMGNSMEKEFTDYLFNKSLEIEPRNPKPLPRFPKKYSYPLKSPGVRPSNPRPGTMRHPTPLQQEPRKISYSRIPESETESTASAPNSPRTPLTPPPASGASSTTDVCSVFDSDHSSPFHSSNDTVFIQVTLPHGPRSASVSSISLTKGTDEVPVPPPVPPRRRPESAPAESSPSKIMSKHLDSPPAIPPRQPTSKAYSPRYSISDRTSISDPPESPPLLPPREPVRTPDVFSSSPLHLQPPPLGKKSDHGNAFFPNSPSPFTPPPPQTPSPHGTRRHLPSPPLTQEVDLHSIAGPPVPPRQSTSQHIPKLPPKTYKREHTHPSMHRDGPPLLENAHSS

[5] = Toxicity in BALB/c mouse xenografted with human PC-3 cells assessed as kidney pathological change at 5 mg/kg,ip administrated once every 4 days for 24 days by hematoxylin and eosin staining based analysis; type: organism-based; conditions: in vivo, 576 h, time 24 day
[6] = test system: PC-3; test: Antiproliferative activity against human PC-3 cells transfected with EGFR shRNA assessed as inhibition of cell growth incubated for 72 hrs by MTT assay; type: functional, cell-based; conditions: PC-3, 72 h
[7] = test system: PC-3; test: Induction of cell cycle arrest in human PC-3 cells assessed as accumulation of cells at G2 phase at 2.5 uM by PI staining based flow cytometry (reference value: 7.75%); type: functional
[8] = test system: PC-3; test: Induction of apoptosis in human PC-3 cells assessed as early apoptotic cells at 0.5 uM by Annexin V-FITC staining based flow cytometry (reference value: 2.64%); type: functional
[9] = test system: HUVEC; test: Antiangiogenic activity in HUVEC cells assessed as reduction in total branching length at 0.5 to 12.5 uM incubated for 8 hrs by matrigel based microscopic analysis; type: functional, cell-based; conditions: Homo sapiens, dose 0.5-12.5 µM
[10] = molecular target: T1, Son of sevenless homolog 1 (Homo sapiens); test: Inhibition of SOS1 in human PC-3 cells assessed as downregulation of ERK phosphorylation at 2.5 uM incubated for 15 mins by Western blotting analysis; type: cell-based
[11] = test system: PC-3; test: Antitumor activity against human PC-3 cells xenografted in BALB/c mouse assessed as reduction in tumor weight at 5 mg/kg,ip administrated once every 4 days for 24 days; type: functional, organism-based; conditions: time 24.0 day
[12] = Toxicity in BALB/c mouse xenografted with human PC-3 cells assessed as lung pathological change at 5 mg/kg,ip administrated once every 4 days for 24 days by hematoxylin and eosin staining based analysis; type: organism-based; conditions: in vivo, 576 h, time 24 day
[13] = molecular target: Epidermal growth factor receptor (Homo sapiens, UniProt P00533); test: Inhibition of EGFR in human PC-3 cells assessed as downregulation of EGF-mediated AKT phosphorylation at 12.5 uM incubated for 15 mins in presence of EGF by Western blotting analysis; type: cell-based
Chain of Epidermal growth factor receptor (P00533 whole entry): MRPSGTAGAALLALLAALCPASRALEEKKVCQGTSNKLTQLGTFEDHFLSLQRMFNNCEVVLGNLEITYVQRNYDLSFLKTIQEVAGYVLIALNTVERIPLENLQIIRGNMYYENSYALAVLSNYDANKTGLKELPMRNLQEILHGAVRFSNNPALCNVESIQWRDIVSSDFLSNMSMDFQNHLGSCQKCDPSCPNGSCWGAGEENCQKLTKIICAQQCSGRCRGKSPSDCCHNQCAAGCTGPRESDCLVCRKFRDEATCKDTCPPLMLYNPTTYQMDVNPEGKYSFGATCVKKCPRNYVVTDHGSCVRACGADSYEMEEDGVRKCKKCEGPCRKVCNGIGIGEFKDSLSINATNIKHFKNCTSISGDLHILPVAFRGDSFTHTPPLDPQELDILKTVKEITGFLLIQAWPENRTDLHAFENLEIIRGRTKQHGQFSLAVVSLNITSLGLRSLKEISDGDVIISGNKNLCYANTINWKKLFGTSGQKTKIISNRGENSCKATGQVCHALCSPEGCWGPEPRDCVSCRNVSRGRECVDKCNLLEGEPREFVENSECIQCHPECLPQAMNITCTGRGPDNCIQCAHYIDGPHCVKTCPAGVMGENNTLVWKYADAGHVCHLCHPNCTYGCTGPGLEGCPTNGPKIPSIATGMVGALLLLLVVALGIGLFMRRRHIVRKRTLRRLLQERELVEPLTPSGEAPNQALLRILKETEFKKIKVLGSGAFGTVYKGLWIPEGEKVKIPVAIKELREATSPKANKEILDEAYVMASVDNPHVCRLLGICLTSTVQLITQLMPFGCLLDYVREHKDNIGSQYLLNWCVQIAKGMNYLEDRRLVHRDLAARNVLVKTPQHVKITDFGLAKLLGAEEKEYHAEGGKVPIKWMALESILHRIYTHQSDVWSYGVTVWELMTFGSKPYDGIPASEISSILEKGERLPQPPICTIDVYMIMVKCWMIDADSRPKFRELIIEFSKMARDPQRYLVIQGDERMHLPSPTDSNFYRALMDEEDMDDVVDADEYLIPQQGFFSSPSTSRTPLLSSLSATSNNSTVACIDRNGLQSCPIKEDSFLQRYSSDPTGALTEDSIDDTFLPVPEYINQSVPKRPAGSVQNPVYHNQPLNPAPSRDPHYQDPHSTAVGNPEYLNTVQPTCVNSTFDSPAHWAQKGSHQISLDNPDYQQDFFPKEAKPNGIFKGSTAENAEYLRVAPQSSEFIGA

[14] = test system: HUVEC; test: Antiangiogenic activity in HUVEC cells assessed as reduction of node at 0.5 to 12.5 uM incubated for 8 hrs by matrigel based microscopic analysis; type: functional, cell-based; conditions: Homo sapiens, dose 0.5-12.5 µM
[15] = test system: PC-3; test: Induction of cell cycle arrest in human PC-3 cells assessed as accumulation of cells at S phase at 12.5 uM by PI staining based flow cytometry (reference value: 16.58%); type: functional
[16] = test system: PC-3; test: Induction of cell cycle arrest in human PC-3 cells assessed as accumulation of cells at S phase at 2.5 uM by PI staining based flow cytometry (reference value: 16.58%); type: functional
[17] = Toxicity in BALB/c mouse xenografted with human PC-3 cells assessed as change in creatinine level at 20 mg/kg,ip administrated once every 4 days for 24 days by automatic biochemical analyzer; type: organism-based; conditions: in vivo, 576 h, time 24 day
[18] = test system: PC-3; test: Induction of apoptosis in human PC-3 cells assessed as necrotic cells at 12.5 uM by Annexin V-FITC staining based flow cytometry (reference value: 0.48%); type: functional
[19] = test system: PC-3; test: Induction of cell cycle arrest in human PC-3 cells assessed as accumulation of cells at G1 phase at 2.5 uM by PI staining based flow cytometry (reference value: 75.66%); type: functional
[20] = test system: A549; test: Antiproliferative activity against human A549 cells assessed as inhibition of cell growth incubated for 72 hrs by MTT assay; type: functional, cell-based
[21] = test system: PC-3; test: Induction of apoptosis in human PC-3 cells assessed as necrotic cells at 2.5 uM by Annexin V-FITC staining based flow cytometry (reference value: 0.48%); type: functional

Which Activity [1] does the source give for `COc1cc2ncnc(N[C@H](C)c3cccc(F)c3)c2cc1OC1CCOCC1` here?
The Activity was “Toxic”.

What about the Activity [2] of the same compound?
Its Activity is “Dose-Dependent Effect”.

And the IC50 [3]?
Its IC50 is 3.92 µM.

And the inhibition [4]?
Its inhibition is “Active”.

And the Activity [5]?
Its Activity is “Toxic”.

What about the IC50 [6] of the same compound?
Its IC50 is 5.48 µM.

What about the Activity [7] of the same compound?
Its Activity is 12.65%.

What about the Activity [8] of the same compound?
The Activity was 11.7%.

What about the Activity [9] of the same compound?
The Activity was “Active”.

And the inhibition [10]?
The inhibition was “Active”.

And the Activity [11]?
Its Activity is “Active”.

What about the Activity [12] of the same compound?
The Activity was “Toxic”.

And the inhibition [13]?
The inhibition was “Active”.

What about the Activity [14] of the same compound?
Its Activity is “Active”.

And the Activity [15]?
The Activity was 6.67%.

And the Activity [16]?
Its Activity is 5.5%.

And the Activity [17]?
The Activity was “Non-Toxic”.

And the Activity [18]?
The Activity was 0.15%.

And the Activity [19]?
Its Activity is 81.85%.

What about the Activity [20] of the same compound?
Its Activity is “Active”.

What about the Activity [21] of the same compound?
The Activity was 0.57%.
